Laboratory results published in ChEMBL document CHEMBL1131694, “New minimal substrate structural requirements in the enzymatic peroxidation of alkenes with soybean lipoxygenase” (Bioorg Med Chem Lett, 1999).
Calls of active or inactive are those of the source. The rule behind the calls is not given here.

Columns and labels:
[1] = target: T1, Seed linoleate 13S-lipoxygenase-1 (Glycine max) (UniProt P08170); experiment: Ratio of proximal to distal region oxidation by 1-lipoxygenase isolated from soybean; Ratio of proximal and distal was 10:90
T1 sequence (whole entry): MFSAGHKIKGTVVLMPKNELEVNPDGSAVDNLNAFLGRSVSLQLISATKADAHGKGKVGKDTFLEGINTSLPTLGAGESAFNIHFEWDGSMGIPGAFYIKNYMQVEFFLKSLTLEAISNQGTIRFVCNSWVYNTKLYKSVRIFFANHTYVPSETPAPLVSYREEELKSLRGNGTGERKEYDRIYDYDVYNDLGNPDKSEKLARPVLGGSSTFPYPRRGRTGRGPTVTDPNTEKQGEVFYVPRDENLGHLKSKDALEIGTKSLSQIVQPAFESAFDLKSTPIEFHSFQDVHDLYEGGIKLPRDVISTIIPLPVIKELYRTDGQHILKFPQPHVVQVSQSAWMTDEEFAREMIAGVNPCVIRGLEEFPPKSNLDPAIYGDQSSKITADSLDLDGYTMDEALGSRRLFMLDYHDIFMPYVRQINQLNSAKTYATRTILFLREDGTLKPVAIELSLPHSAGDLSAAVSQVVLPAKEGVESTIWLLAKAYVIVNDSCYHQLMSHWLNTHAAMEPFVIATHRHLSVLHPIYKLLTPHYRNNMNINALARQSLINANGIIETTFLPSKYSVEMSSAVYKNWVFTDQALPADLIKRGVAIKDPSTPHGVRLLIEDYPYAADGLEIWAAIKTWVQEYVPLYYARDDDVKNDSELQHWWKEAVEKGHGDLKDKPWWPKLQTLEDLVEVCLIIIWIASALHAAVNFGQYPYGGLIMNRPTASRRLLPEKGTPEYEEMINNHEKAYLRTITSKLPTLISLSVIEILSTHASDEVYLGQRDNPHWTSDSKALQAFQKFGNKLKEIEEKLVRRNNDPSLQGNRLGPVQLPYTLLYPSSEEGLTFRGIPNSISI

[2] = Partition coefficient (logP); format: physicochemical; details: octanol/water
[3] = target: T1, Seed linoleate 13S-lipoxygenase-1 (Glycine max); experiment: Ratio of proximal to distal region oxidation by 1-lipoxygenase isolated from soybean; Ratio of proximal and distal was 25:75
[4] = target: T1, Seed linoleate 13S-lipoxygenase-1 (Glycine max); experiment: Ratio of proximal to distal region oxidation by 1-lipoxygenase isolated from soybean; Ratio of proximal and distal was 1:99
[5] = target: T1, Seed linoleate 13S-lipoxygenase-1 (Glycine max); experiment: Ratio of proximal to distal region oxidation by 1-lipoxygenase isolated from soybean; Ratio of proximal and distal was 89:11
[6] = target: T1, Seed linoleate 13S-lipoxygenase-1 (Glycine max); experiment: Ratio of proximal to distal region oxidation by 1-lipoxygenase isolated from soybean; Ratio of proximal and distal was 35:65
[7] = target: T1, Seed linoleate 13S-lipoxygenase-1 (Glycine max); experiment: Ratio of proximal to distal region oxidation by 1-lipoxygenase isolated from soybean; Ratio of proximal and distal was 95:5
[8] = target: T1, Seed linoleate 13S-lipoxygenase-1 (Glycine max)
[9] = target: T1, Seed linoleate 13S-lipoxygenase-1 (Glycine max); experiment: Ratio of proximal to distal region oxidation by 1-lipoxygenase isolated from soybean; Ratio of proximal and distal was 87:13
[10] = target: T1, Seed linoleate 13S-lipoxygenase-1 (Glycine max); experiment: Ratio of proximal to distal region oxidation by 1-lipoxygenase isolated from soybean; Ratio of proximal and distal was 99:1
[11] = target: T1, Seed linoleate 13S-lipoxygenase-1 (Glycine max); experiment: Ratio of proximal to distal region oxidation by 1-lipoxygenase isolated from soybean; Ratio of proximal and distal was 76:24
[12] = target: T1, Seed linoleate 13S-lipoxygenase-1 (Glycine max); experiment: Ratio of proximal to distal region oxidation by 1-lipoxygenase isolated from soybean; Ratio of proximal and distal was 50:50

With `CCCCCCCC/C=C\C/C=C\CCOC(=O)COCCO` the Regiospecificity [1] was “Ratio of proximal and distal was 10:90”.
For `CCCCCCCC/C=C\C=C\[C@@H](O)CCO`, the logP ([2]; read-out: logP) was 4.41.
For `CCCCCCCCCC/C=C\C/C=C\CCOC(=O)CCCCC(=O)O`, the Regiospecificity [3] was “Ratio of proximal and distal was 25:75”.
With `CC(C)=CCC/C(C)=C/C/C=C\C/C=C\CCOC(=O)CCCCC(=O)O` the Regiospecificity [4] was “Ratio of proximal and distal was 1:99”.
With `[N-]=[N+]=NCC/C=C\C/C=C\CCOC(=O)COCCO` the Regiospecificity [5] was “Ratio of proximal and distal was 89:11”.
In the case of `CCCCCCCCC/C=C\C/C=C\CCOC(=O)CCCCC(=O)O`, the Regiospecificity [6] is reported as “Ratio of proximal and distal was 35:65”.
With `CC(C)=CCC/C(C)=C/C/C=C\C/C=C\CCOC(=O)COCCO` the Regiospecificity [4] was “Ratio of proximal and distal was 1:99”.
In the case of `CCCCC/C=C\C/C=C\CCOC(=O)CCCCC(=O)O`, the Regiospecificity [7] is reported as “Ratio of proximal and distal was 95:5”.
Work on `[N-]=[N+]=NCC/C=C/C=C/[C@@H](O)CCO` yielded a logP ([2]; read-out: logP) of 6.1.
For `CCCCC/C=C\C/C=C\CCCCCCCC(=O)O`, the Regiospecificity [8] was “Active”.
With `CCCCCC/C=C\C/C=C\CCOC(=O)CCCCC(=O)O` the Regiospecificity [9] was “Ratio of proximal and distal was 87:13”.
With `CCCCC/C=C\C/C=C\CCOC(=O)COCCO` the Regiospecificity [10] was “Ratio of proximal and distal was 99:1”.
With `CCCCCCC/C=C\C/C=C\CCOC(=O)CCCCC(=O)O` the Regiospecificity [11] was “Ratio of proximal and distal was 76:24”.
For `CC(C)=CCC/C(C)=C/C/C=C\C=C\[C@@H](O)CCO`, the logP [2] was 3.7.
With `CCCC/C=C\C=C\[C@@H](O)CCO` the logP ([2]; read-out: logP) was 2.82.
For `CCCCCCCC/C=C\C/C=C\CCOC(=O)CCCCC(=O)O`, the Regiospecificity [12] was “Ratio of proximal and distal was 50:50”.
